Entries after “also recorded” stand apart in the source; their conditions may differ.
Assays:
pregnant rabbits = assay: Embryo-fetal development study in pregnant rabbits; format: in vivo, rabbit
Procedure: In embryo-fetal development studies, voxelotor was administered orally to pregnant rats at 15, 50, and 250 mg/kg/day (gestation days 7 through 17) and rabbits at 25, 75, and 150 mg/kg/day (gestation days 7 through 19) through organogenesis.

BSEP = BSEP (Homo sapiens, UniProt O95342); assay: In vitro transporter studies: BSEP; format: in vitro ADME
BSEP, sequence (O95342 whole entry): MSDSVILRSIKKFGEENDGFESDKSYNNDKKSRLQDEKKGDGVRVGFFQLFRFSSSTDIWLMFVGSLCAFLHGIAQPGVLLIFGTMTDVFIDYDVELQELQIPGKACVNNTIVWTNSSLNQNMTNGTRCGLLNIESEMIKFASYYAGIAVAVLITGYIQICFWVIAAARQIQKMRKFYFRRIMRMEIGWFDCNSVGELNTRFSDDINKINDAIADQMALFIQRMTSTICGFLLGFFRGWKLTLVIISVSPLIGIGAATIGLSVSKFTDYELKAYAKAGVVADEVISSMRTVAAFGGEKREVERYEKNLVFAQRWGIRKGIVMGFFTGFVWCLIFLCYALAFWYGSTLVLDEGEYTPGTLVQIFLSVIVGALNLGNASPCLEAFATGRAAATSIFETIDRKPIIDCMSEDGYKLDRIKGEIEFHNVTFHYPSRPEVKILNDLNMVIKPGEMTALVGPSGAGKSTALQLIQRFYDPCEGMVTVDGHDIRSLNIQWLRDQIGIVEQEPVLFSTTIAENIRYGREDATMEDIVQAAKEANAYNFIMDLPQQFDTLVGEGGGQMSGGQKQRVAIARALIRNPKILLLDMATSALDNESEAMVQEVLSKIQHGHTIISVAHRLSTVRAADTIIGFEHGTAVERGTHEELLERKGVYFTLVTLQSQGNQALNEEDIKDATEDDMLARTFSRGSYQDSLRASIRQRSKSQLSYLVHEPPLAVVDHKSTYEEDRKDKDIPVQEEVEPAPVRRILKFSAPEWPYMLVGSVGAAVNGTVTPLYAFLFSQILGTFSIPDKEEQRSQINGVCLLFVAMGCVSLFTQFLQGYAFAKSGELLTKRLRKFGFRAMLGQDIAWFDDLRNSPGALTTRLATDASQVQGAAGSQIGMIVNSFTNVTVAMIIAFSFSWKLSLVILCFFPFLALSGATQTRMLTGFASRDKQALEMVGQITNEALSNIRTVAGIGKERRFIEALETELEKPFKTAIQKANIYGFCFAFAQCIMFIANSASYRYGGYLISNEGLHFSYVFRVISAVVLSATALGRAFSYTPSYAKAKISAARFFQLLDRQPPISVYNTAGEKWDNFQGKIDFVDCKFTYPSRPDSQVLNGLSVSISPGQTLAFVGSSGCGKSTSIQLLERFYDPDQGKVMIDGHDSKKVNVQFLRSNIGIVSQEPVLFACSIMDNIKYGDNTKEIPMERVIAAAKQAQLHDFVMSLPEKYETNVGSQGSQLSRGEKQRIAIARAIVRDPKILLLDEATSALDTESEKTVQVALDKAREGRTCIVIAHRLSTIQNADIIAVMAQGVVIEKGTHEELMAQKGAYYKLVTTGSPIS

CYP2D6 = CYP2D6 (Homo sapiens, UniProt P10635)
CYP2D6, sequence (P10635 whole entry): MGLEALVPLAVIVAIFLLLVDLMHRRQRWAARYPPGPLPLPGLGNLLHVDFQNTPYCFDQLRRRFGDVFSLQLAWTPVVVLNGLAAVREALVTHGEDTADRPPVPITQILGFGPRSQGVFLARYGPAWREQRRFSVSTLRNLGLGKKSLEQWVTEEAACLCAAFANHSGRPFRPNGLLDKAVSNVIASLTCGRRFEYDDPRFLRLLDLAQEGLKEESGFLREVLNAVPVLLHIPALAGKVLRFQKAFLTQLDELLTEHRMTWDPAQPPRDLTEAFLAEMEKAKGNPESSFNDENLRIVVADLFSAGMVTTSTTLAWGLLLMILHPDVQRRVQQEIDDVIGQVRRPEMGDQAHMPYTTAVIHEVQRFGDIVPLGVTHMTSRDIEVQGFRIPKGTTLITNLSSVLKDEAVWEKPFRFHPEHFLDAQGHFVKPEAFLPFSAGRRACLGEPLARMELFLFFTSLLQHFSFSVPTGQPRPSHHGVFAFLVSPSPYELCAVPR

pregnant rats = assay: Pre- and postnatal development study in pregnant rats; format: in vivo, rat
Procedure: In a pre- and postnatal development study, voxelotor was administered orally to pregnant rats at 15, 50 and 250 mg/kg/day (gestation day 6 through lactation day 20). Maternal gestational body weights were decreased at 250 mg/kg/day, which continued to the end of lactation.

OATP1B3 = OATP1B3 (Homo sapiens, UniProt Q9NPD5); assay: In vitro transporter studies: OATP1B3; format: in vitro ADME
OATP1B3, sequence (Q9NPD5 whole entry): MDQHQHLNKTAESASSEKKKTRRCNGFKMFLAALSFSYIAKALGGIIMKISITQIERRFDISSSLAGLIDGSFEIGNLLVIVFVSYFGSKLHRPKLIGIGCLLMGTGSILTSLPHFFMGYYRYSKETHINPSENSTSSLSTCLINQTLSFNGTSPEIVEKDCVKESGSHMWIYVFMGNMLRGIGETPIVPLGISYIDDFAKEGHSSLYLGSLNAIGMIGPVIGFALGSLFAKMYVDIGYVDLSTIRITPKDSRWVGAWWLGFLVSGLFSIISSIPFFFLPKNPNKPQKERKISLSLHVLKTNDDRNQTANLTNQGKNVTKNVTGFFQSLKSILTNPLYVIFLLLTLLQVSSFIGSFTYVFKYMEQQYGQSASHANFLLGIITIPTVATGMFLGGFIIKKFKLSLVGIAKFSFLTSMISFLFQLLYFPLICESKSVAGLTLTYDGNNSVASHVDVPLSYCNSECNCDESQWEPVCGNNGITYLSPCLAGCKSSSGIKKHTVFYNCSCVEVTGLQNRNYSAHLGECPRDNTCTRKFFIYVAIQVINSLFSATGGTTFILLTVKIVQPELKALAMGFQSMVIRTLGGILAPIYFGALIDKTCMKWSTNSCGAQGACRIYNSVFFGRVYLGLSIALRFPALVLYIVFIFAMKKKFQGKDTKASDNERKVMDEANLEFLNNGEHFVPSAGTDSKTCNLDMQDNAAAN

[1] = Phase 1 hepatic impairment study: safety evaluation (TEAEs); format: in vivo
Source text: This was a Phase 1, multiple-center, nonrandomized, open-label, parallel group study of a single oral dose of voxelotor administered in subjects with mild (Child-Pugh A; score 5 to 6 points), moderate (Child-Pugh B; score 7 to 9 points), or severe (Child-Pugh C; score 10 to 15 points) hepatic impairment and subjects with normal hepatic function. This study was designed to assess the effects of mild, moderate, or severe hepatic impairment on the PK of a single oral dose of voxelotor. Routine safety assessments (AE monitoring, vital signs, physical examinations, clinical laboratory tests, and ECGs) were performed.
Eligible subjects received a single oral dose of voxelotor 1500 mg (5×300-mg capsules) on Day 1 (for normal hepatic function, mild and moderate hepatic impairment). A lower dose of voxelotor 600 mg (2×300-mg capsules) was administered for the subjects with severe hepatic impairment.
Adverse events and concomitant medication use were monitored throughout the study. Safety assessments, including physical examinations, vital signs assessments, 12-lead ECGs, and clinical laboratory tests, were performed. Whole blood and plasma concentrations of voxelotor were determined using validated assays.
All statistical analyses were performed using the safety population. All AEs were coded to SOC and PT using MedDRA (Version 19.0) and presented by subject in data listings. A treatment-emergent AE was defined as an AE that was not present prior to treatment with study drug, but appeared following treatment or was present at treatment initiation but worsened during treatment. An AE that was present at treatment initiation but resolved and then reappeared while the subject was on treatment was a TEAE (regardless of the intensity of the AE when the treatment was initiated). Programmatically, an AE was classified as a TEAE if the start date and time occurred on or after the start date and time of first study drug dosing. The overall incidence of TEAEs (number and percentage of subjects) as well as the number of events were summarized by hepatic function group, severity, SAEs, causally related TEAE and SAEs, TEAEs leading to study or treatment discontinuation, life-threatening SAEs, and SAEs resulting in death.
The TEAEs were summarized and tabulated at both the subject (number [%] of subjects) and event (number of events) level: (1) by hepatic function group, SOC, and PT; (2) by hepatic function group, SOC, PT, and maximum reported severity; and (3) by hepatic function group, SOC, PT, and maximum relationship to study drug.

MATE2-K = MATE2-K (Homo sapiens, UniProt Q86VL8); assay: In vitro transporter studies: MATE2-K; format: in vitro ADME
MATE2-K, sequence (Q86VL8 1-566 isoform Q86VL8-3): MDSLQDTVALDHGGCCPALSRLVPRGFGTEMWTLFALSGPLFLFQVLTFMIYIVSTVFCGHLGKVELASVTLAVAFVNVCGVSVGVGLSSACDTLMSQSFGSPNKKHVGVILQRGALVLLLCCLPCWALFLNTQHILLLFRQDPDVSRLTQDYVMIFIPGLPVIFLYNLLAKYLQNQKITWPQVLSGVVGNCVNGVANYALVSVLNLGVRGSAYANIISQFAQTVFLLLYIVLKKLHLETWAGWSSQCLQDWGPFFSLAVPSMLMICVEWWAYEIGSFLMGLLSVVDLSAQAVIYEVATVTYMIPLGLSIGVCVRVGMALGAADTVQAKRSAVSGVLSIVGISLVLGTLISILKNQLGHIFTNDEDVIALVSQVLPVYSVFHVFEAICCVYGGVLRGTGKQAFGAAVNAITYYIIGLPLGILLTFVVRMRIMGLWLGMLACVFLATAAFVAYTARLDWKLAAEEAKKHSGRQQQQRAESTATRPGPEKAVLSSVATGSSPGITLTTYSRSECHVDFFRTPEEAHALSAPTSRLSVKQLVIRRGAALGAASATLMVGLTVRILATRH

OATP1B1 = OATP1B1 (Homo sapiens, UniProt Q9Y6L6); assay: In vitro transporter studies: OATP1B1; format: in vitro ADME
OATP1B1, sequence (Q9Y6L6 whole entry): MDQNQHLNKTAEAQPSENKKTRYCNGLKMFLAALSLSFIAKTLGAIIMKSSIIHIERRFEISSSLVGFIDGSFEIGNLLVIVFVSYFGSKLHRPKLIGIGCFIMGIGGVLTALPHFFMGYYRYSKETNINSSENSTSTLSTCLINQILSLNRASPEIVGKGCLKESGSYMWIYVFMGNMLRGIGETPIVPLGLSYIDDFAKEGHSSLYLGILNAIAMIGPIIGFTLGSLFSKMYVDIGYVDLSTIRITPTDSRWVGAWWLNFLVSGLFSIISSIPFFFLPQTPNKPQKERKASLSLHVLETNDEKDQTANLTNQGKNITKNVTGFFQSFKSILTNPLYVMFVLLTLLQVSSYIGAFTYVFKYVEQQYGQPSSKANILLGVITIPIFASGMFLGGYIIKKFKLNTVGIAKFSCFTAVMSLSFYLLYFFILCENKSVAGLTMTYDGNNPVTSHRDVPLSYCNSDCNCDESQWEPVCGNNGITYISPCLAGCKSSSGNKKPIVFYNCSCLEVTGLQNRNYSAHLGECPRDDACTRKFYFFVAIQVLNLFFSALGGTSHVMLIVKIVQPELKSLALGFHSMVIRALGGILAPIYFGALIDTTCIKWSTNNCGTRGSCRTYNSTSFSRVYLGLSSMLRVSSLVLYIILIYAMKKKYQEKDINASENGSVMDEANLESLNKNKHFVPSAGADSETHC

[2] = Voxelotor in milk of lactating rats; format: in vivo, rat
Source text: There are no data on the presence of voxelotor in human milk, the effects on the breastfed child, or the effects on milk production. […] Plasma concentrations of voxelotor in pregnant rats were higher than the concentration in milk. When a drug is present in animal milk, it is likely that the drug will be present in human milk. […] Because of the potential for serious adverse reactions in the breastfed child, including changes in the hematopoietic system, advise patients that breastfeeding is not recommended during treatment with OXBRYTA, and for at least 2 weeks after the last dose.

hemoglobin S (HbS) = hemoglobin S (HbS) (Homo sapiens, UniProt P69905); assay: Mechanism of action: binding to HbS and HbS polymerization
hemoglobin S (HbS), sequence (P69905 whole entry): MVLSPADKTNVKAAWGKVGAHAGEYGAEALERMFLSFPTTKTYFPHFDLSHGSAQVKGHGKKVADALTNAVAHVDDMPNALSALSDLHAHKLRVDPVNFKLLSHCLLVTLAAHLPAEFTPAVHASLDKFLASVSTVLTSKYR
hemoglobin S (HbS), sequence (P68871 with tags, fused parts or gaps E7V partner limits assumed): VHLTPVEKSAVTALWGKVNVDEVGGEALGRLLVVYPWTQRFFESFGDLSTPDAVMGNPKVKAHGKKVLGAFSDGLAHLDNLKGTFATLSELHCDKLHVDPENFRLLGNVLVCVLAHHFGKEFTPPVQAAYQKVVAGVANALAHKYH

[3] = Effect of food on voxelotor PK; format: in vivo
RasH2 transgenic mice = assay: 26-week carcinogenicity study; format: in vivo, mouse; details: 26-week study; oral doses of 30, 150, or 500 mg/kg/day
rat = assay: Rat micronucleus assay; format: in vivo
Source text: Voxelotor was not genotoxic in the reverse mutation bacterial (Ames) test, rat Comet assay, or rat micronucleus assay.

[4] = PK in patients with HbSC genotype vs HbSS genotype; details: human, in vivo

CC(C)n1nccc1-c1ncccc1COc1cccc(O)c1C=O [voxelotor, 2-hydroxy-6-((2-(1-isopropyl-1H-pyrazol-5-yl)pyridin-3-yl)methoxy)benzaldehyde]
adverse developmental outcomes (pregnant rabbits; pregnant rabbits, oral 25, 75, 150 mg/kg/day, gestation days 7 through 19): no adverse developmental effects; also recorded: no evidence of adverse developmental outcomes | exposure at highest dose level (maternal toxicity observed) relative to exposure in patients at the recommended daily dose (pregnant rabbits; rabbits, 150 mg/kg/day): 0.3 times | inhibition of BSEP (BSEP): not an inhibitor | substrate of BSEP (BSEP): not a substrate | inhibition of CYP2D6 in vivo (CYP2D6): not | findings in offspring (pregnant rats; maternal dose 250 mg/kg/day, throughout lactation, weaning and maturation): reduced survival and reduced body weights | maternal gestational body weights (pregnant rats; pregnant rats, 250 mg/kg/day oral, gestation day 6 through lactation day 20): decreased | exposure at 250 mg/kg/day relative to exposure in patients at the recommended dose (pregnant rats; rats, maternal dose 250 mg/kg/day): approximately 2.8 times | inhibition of OATP1B3 (OATP1B3): not an inhibitor | substrate of OATP1B3 (OATP1B3): not a substrate | deaths, SAEs, AEs leading to discontinuation ([1]; all hepatic function groups): No deaths, other serious adverse events (SAEs), and no AEs leading to discontinuation of the study were reported | subjects reporting mild TEAEs ([1]; mild hepatic impairment, 4 of 7 subjects): 57.1% | subjects reporting a moderate TEAE ([1]; moderate hepatic impairment, 1 of 7 subjects): 14.3% | subjects with TEAE of diarrhea (mild) ([1]; moderate hepatic impairment, 1500 mg, 5 of 7 subjects): 71.4% | subjects reporting mild TEAEs ([1]; moderate hepatic impairment, 5 of 7 subjects): 71.4% | TEAEs ([1]; normal hepatic function, 1500 mg): No TEAEs were reported | subjects with diarrhea (most frequently reported TEAE) ([1]; overall, 7 events in 7 subjects): 25% | subjects reporting TEAEs ([1]; overall, 11 subjects, 17 TEAEs): 39.3% | subjects with TEAEs possibly/probably related to study drug ([1]; overall, seven subjects, 8 TEAEs): 25.0% | subjects reporting a mild TEAE and a moderate TEAE ([1]; severe hepatic impairment, 600 mg, 1 of 7 subjects): 14.3% | safety and tolerability ([1]; single oral dose 1500 mg (mild, moderate, normal) or 600 mg (severe hepatic impairment)): safe and well tolerated | inhibition of MATE2-K (MATE2-K): not an inhibitor | inhibition of OATP1B1 (OATP1B1): not an inhibitor | substrate of OATP1B1 (OATP1B1): not a substrate | presence in milk [2]: detected in milk | inhibition of HbS polymerization (hemoglobin S (HbS)): dose-dependent inhibition of HbS polymerization | increase of AUC with high-fat, high-calorie meal relative to fasted state ([3]; plasma): 42% | increase of Cmax with high-fat, high-calorie meal relative to fasted state ([3]; plasma): 95% | increase of AUC with high-fat, high-calorie meal relative to fasted state ([3]; whole blood): 42% | increase of Cmax with high-fat, high-calorie meal relative to fasted state ([3]; whole blood): 45% | carcinogenicity (RasH2 transgenic mice): not carcinogenic | genotoxicity (rat): not genotoxic | steady state plasma AUC higher in HbSC vs HbSS genotype patients [4]: 23% | steady state plasma Cmax higher in HbSC vs HbSS genotype patients [4]: 15% | steady state whole blood AUC higher in HbSC (n=11) vs HbSS (n=220) genotype patients [4]: 50% | steady state whole blood Cmax higher in HbSC vs HbSS genotype patients [4]: 45%

— patent US20230015823A1, “METHODS OF ADMINISTERING VOXELOTOR” (Global Blood Therapeutics, Inc., priority 2019, published 2023)
